Reference: the supplement of paper PMC9013687

Key:
[1] = system: Danio rerio embryo; assay: spontaneous tail coiling frequency (coils/min/embryo); higher = more spontaneous movement; details: 25 hpf
Method: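 Spontaneous tail coilings of zebrafish embryos exposed from 2 hpf were recorded at 24-25 hpf in 1-min videos and detected by a KNIME workflow from grey-value variance. Betamethasone was tested as the dipropionate, diflorasone as the diacetate.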

[2] = system: Danio rerio embryo; details: exposure time: 4 dpf
Method: (§1)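 Zebrafish embryos (UFZ-OBI strain) were exposed from 2 hpf for 48 h (2 dpf) or 96 h (4 dpf) at 28 °C; spontaneous tail coiling was scored at 25 hpf. Morphological features from automated image analysis (FishInspector), heart rate and locomotor response were fitted with drc models. Quantal endpoints were dichotomised at 2.5 SD from controls and fitted with a log-logistic model; heart rate, pigmentation and STC were normalised to the replicate control mean. Betamethasone was tested as betamethasone dipropionate, diflorasone as diflorasone diacetate.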

[3] = system: Danio rerio embryo; assay: EC50 Eye-jaw distance_Decrease; details: exposure time: 4 dpf
Method: as §1

[4] = system: Danio rerio embryo; assay: EC10 Eye-jaw distance_Decrease; higher = less potent; details: exposure time: 4 dpf
Method: as §1

[5] = system: Danio rerio embryo; assay: EC50 Curvature_Increase
Method: as §1

[6] = system: Danio rerio embryo
Method: as §1

[7] = system: Danio rerio embryo; assay: EC20 Body length_Decrease; higher = less potent
Method: as §1

[8] = system: Danio rerio embryo; assay: EC10 LMR ligth decrease; higher = less potent; details: exposure time: 4 dpf
Method: as §1

[9] = system: Danio rerio embryo; assay: EC20 Pericard size_Increase; higher = less potent; details: exposure time: 2 dpf
Method: as §1

[10] = system: Danio rerio embryo; assay: EC10 Lack of SB; higher = less potent; details: exposure time: 4 dpf
Method: as §1

[11] = system: Danio rerio embryo; assay: EC10 Body length_Decrease; higher = less potent
Method: as §1

[12] = system: Danio rerio embryo; assay: EC50 Yolk sac size_Increase
Method: as §1

[13] = system: Danio rerio embryo; assay: EC50 Head size_Decrease; details: exposure time: 2 dpf
Method: as §1

[14] = system: Danio rerio embryo; assay: EC20 Any effect; higher = less potent
Method: as §1

[15] = system: Danio rerio embryo; assay: EC20 LMR ligth decrease; higher = less potent; details: exposure time: 4 dpf
Method: as §1

[16] = system: Danio rerio embryo; assay: EC20 LMR dark; higher = less potent; details: exposure time: 4 dpf
Method: as §1

[17] = system: Danio rerio embryo; assay: EC20 Eye size_Decrease; higher = less potent; details: exposure time: 2 dpf
Method: as §1

[18] = system: Danio rerio embryo; assay: EC10 Head trunk angle_Decrease; higher = less potent; details: exposure time: 2 dpf
Method: as §1

[19] = system: Danio rerio embryo; assay: EC50 Bladder size_Decrease; details: exposure time: 4 dpf
Method: as §1

[20] = system: Danio rerio embryo; assay: EC10 Curvature_Increase; higher = less potent
Method: as §1

[21] = system: Danio rerio embryo; assay: EC50 Head trunk angle_Decrease; details: exposure time: 2 dpf
Method: as §1

[22] = system: Danio rerio embryo; assay: EC10 Any effect; higher = less potent
Method: as §1

[23] = system: Danio rerio embryo; assay: EC20 Yolk sac size_Increase; higher = less potent
Method: as §1

[24] = system: Danio rerio embryo; assay: EC10 Pericard size_Increase; higher = less potent; details: exposure time: 2 dpf
Method: as §1

[25] = system: Danio rerio embryo; assay: EC50 Body length_Decrease
Method: as §1

[26] = system: Danio rerio embryo; assay: EC20 Curvature_Increase; higher = less potent
Method: as §1

[27] = system: Danio rerio embryo; assay: EC10 Yolk sac size_Increase; higher = less potent
Method: as §1

[28] = system: Danio rerio embryo; assay: EC20 STC decrease; higher = less potent; details: exposure time: 25 h
Method: as §1

[29] = system: Danio rerio embryo; assay: EC50 Pericard size_Increase; details: exposure time: 2 dpf
Method: as §1

[30] = system: Danio rerio embryo; assay: EC10 Eye size_Decrease; higher = less potent; details: exposure time: 2 dpf
Method: as §1

[31] = system: Danio rerio embryo; assay: EC10 LMR dark; higher = less potent; details: exposure time: 4 dpf
Method: as §1

[32] = system: Danio rerio embryo; assay: EC20 Eye-jaw distance_Decrease; higher = less potent; details: exposure time: 4 dpf
Method: as §1

[33] = system: Danio rerio embryo; assay: EC10 STC decrease; higher = less potent; details: exposure time: 25 h
Method: as §1

[34] = system: Danio rerio embryo; assay: EC50 Eye size_Decrease; details: exposure time: 2 dpf
Method: as §1

[35] = system: Danio rerio embryo; assay: EC20 Bladder size_Decrease; higher = less potent; details: exposure time: 4 dpf
Method: as §1

[36] = system: Danio rerio embryo; assay: EC10 Head size_Decrease; higher = less potent; details: exposure time: 2 dpf
Method: as §1

[37] = system: Danio rerio embryo; assay: EC20 Head trunk angle_Decrease; higher = less potent; details: exposure time: 2 dpf
Method: as §1

[38] = system: Danio rerio embryo; assay: EC20 Head size_Decrease; higher = less potent; details: exposure time: 2 dpf
Method: as §1

[39] = system: Danio rerio embryo; assay: EC10 Bladder size_Decrease; higher = less potent; details: exposure time: 4 dpf
Method: as §1

[40] = system: Danio rerio embryo; details: exposure time: 4 dpf; remark: listed apart in the source
Method: as §1

[41] = system: Danio rerio embryo; assay: EC20 Lack of SB; higher = less potent; details: exposure time: 4 dpf
Method: as §1

CC(=O)Nc1ccc(O)cc1 [acetaminophen]
[1]
Details	spontaneous tail coiling frequency
230 µM	2.54
470 µM	1.5
940 µM	2.42
1875 µM	2.5
1876 µM	3.01
3750 µM	3.63
6250 µM	3.44
7500 µM	1.69
15000 µM	0

CC1=C(/C=C/C(C)=C/C=C/C(C)=C/C(=O)O)C(C)(C)CCC1 [all-trans retinoic acid]
Details	EC10 Bladder size Decrease [nM]	EC10 Eye size Decrease [nM]	EC10 Eye-jaw distance Decrease [nM]	EC10 Head size Decrease [nM]	EC10 Head trunk angle Decrease [nM]	EC10 LMR dark [nM]	EC10 LMR ligth decrease [nM]	EC10 Lack of SB [nM]	EC10 Pericard size Increase [nM]	EC10 STC decrease [nM]	EC20 Bladder size Decrease [nM]	EC20 Eye size Decrease [nM]	EC20 Eye-jaw distance Decrease [nM]	EC20 Head size Decrease [nM]	EC20 Head trunk angle Decrease [nM]	EC20 LMR dark [nM]	EC20 LMR ligth decrease [nM]	EC20 Lack of SB [nM]	EC20 Pericard size Increase [nM]	EC20 STC decrease [nM]	EC50 Bladder size Decrease [nM]	EC50 Eye size Decrease [nM]	EC50 Eye-jaw distance Decrease [nM]	EC50 Head size Decrease [nM]	EC50 Head trunk angle Decrease [nM]	EC50 LMR dark [nM]	EC50 Lack of SB [nM]	EC50 Pericard size Increase [nM]
[2]	–	–	–	–	–	–	–	–	–	–	–	–	–	–	–	–	–	–	–	–	–	–	–	–	–	36	–	–
[3]	–	–	–	–	–	–	–	–	–	–	–	–	–	–	–	–	–	–	–	–	–	–	33	–	–	–	–	–
[4]	–	–	25	–	–	–	–	–	–	–	–	–	–	–	–	–	–	–	–	–	–	–	–	–	–	–	–	–
[8]	–	–	–	–	–	–	1.7	–	–	–	–	–	–	–	–	–	–	–	–	–	–	–	–	–	–	–	–	–
[9]	–	–	–	–	–	–	–	–	–	–	–	–	–	–	–	–	–	–	36	–	–	–	–	–	–	–	–	–
[10]	–	–	–	–	–	–	–	12	–	–	–	–	–	–	–	–	–	–	–	–	–	–	–	–	–	–	–	–
[13]	–	–	–	–	–	–	–	–	–	–	–	–	–	–	–	–	–	–	–	–	–	–	–	42	–	–	–	–
[15]	–	–	–	–	–	–	–	–	–	–	–	–	–	–	–	–	4.75	–	–	–	–	–	–	–	–	–	–	–
[16]	–	–	–	–	–	–	–	–	–	–	–	–	–	–	–	22	–	–	–	–	–	–	–	–	–	–	–	–
[17]	–	–	–	–	–	–	–	–	–	–	–	36	–	–	–	–	–	–	–	–	–	–	–	–	–	–	–	–
[18]	–	–	–	–	2	–	–	–	–	–	–	–	–	–	–	–	–	–	–	–	–	–	–	–	–	–	–	–
[19]	–	–	–	–	–	–	–	–	–	–	–	–	–	–	–	–	–	–	–	–	17	–	–	–	–	–	–	–
[21]	–	–	–	–	–	–	–	–	–	–	–	–	–	–	–	–	–	–	–	–	–	–	–	–	11	–	–	–
[24]	–	–	–	–	–	–	–	–	35	–	–	–	–	–	–	–	–	–	–	–	–	–	–	–	–	–	–	–
[28]	–	–	–	–	–	–	–	–	–	–	–	–	–	–	–	–	–	–	–	5.6	–	–	–	–	–	–	–	–
[29]	–	–	–	–	–	–	–	–	–	–	–	–	–	–	–	–	–	–	–	–	–	–	–	–	–	–	–	39
[30]	–	34	–	–	–	–	–	–	–	–	–	–	–	–	–	–	–	–	–	–	–	–	–	–	–	–	–	–
[31]	–	–	–	–	–	16	–	–	–	–	–	–	–	–	–	–	–	–	–	–	–	–	–	–	–	–	–	–
[32]	–	–	–	–	–	–	–	–	–	–	–	–	28	–	–	–	–	–	–	–	–	–	–	–	–	–	–	–
[33]	–	–	–	–	–	–	–	–	–	1.22	–	–	–	–	–	–	–	–	–	–	–	–	–	–	–	–	–	–
[34]	–	–	–	–	–	–	–	–	–	–	–	–	–	–	–	–	–	–	–	–	–	38	–	–	–	–	–	–
[35]	–	–	–	–	–	–	–	–	–	–	12	–	–	–	–	–	–	–	–	–	–	–	–	–	–	–	–	–
[36]	–	–	–	19	–	–	–	–	–	–	–	–	–	–	–	–	–	–	–	–	–	–	–	–	–	–	–	–
[37]	–	–	–	–	–	–	–	–	–	–	–	–	–	–	4	–	–	–	–	–	–	–	–	–	–	–	–	–
[38]	–	–	–	–	–	–	–	–	–	–	–	–	–	26	–	–	–	–	–	–	–	–	–	–	–	–	–	–
[39]	11	–	–	–	–	–	–	–	–	–	–	–	–	–	–	–	–	–	–	–	–	–	–	–	–	–	–	–
[40]	–	–	–	–	–	–	–	–	–	–	–	–	–	–	–	–	–	–	–	–	–	–	–	–	–	–	20	–
[41]	–	–	–	–	–	–	–	–	–	–	–	–	–	–	–	–	–	15	–	–	–	–	–	–	–	–	–	–

Details	EC10 Any effect [nM]	EC10 Body length Decrease [nM]	EC10 Curvature Increase [nM]	EC10 Yolk sac size Increase [nM]	EC20 Any effect [nM]	EC20 Body length Decrease [nM]	EC20 Curvature Increase [nM]	EC20 Yolk sac size Increase [nM]	EC50 Any effect [nM]	EC50 Body length Decrease [nM]	EC50 Curvature Increase [nM]	EC50 LMR ligth decrease [nM]	EC50 STC decrease [nM]	EC50 Yolk sac size Increase [nM]	spontaneous tail coiling frequency
[1], 1 µM	–	–	–	–	–	–	–	–	–	–	–	–	–	–	3.33
[1], 6.25 µM	–	–	–	–	–	–	–	–	–	–	–	–	–	–	2.34
[1], 12.5 µM	–	–	–	–	–	–	–	–	–	–	–	–	–	–	2.17
[1], 25 µM	–	–	–	–	–	–	–	–	–	–	–	–	–	–	2.1
[1], 50 µM	–	–	–	–	–	–	–	–	–	–	–	–	–	–	1.74
[5], exposure time: 2 dpf	–	–	–	–	–	–	–	–	–	–	13	–	–	–	–
[5], exposure time: 4 dpf	–	–	–	–	–	–	–	–	–	–	10	–	–	–	–
[6], exposure time: 2 dpf	–	–	–	–	–	–	–	–	9	–	–	–	–	–	–
[6], exposure time: 4 dpf	–	–	–	–	–	–	–	–	11	–	–	27.4	–	–	–
[6], exposure time: 25 h	–	–	–	–	–	–	–	–	–	–	–	–	76	–	–
[7], exposure time: 2 dpf	–	–	–	–	–	33	–	–	–	–	–	–	–	–	–
[7], exposure time: 4 dpf	–	–	–	–	–	30	–	–	–	–	–	–	–	–	–
[11], exposure time: 2 dpf	–	31	–	–	–	–	–	–	–	–	–	–	–	–	–
[11], exposure time: 4 dpf	–	23	–	–	–	–	–	–	–	–	–	–	–	–	–
[12], exposure time: 2 dpf	–	–	–	–	–	–	–	–	–	–	–	–	–	45	–
[12], exposure time: 4 dpf	–	–	–	–	–	–	–	–	–	–	–	–	–	39	–
[14], exposure time: 2 dpf	–	–	–	–	8	–	–	–	–	–	–	–	–	–	–
[14], exposure time: 4 dpf	–	–	–	–	7	–	–	–	–	–	–	–	–	–	–
[20], exposure time: 2 dpf	–	–	7	–	–	–	–	–	–	–	–	–	–	–	–
[20], exposure time: 4 dpf	–	–	6	–	–	–	–	–	–	–	–	–	–	–	–
[22], exposure time: 2 dpf	8	–	–	–	–	–	–	–	–	–	–	–	–	–	–
[22], exposure time: 4 dpf	6	–	–	–	–	–	–	–	–	–	–	–	–	–	–
[23], exposure time: 2 dpf	–	–	–	–	–	–	–	21	–	–	–	–	–	–	–
[23], exposure time: 4 dpf	–	–	–	–	–	–	–	36	–	–	–	–	–	–	–
[25], exposure time: 2 dpf	–	–	–	–	–	–	–	–	–	36	–	–	–	–	–
[25], exposure time: 4 dpf	–	–	–	–	–	–	–	–	–	48	–	–	–	–	–
[26], exposure time: 2 dpf	–	–	–	–	–	–	9	–	–	–	–	–	–	–	–
[26], exposure time: 4 dpf	–	–	–	–	–	–	7	–	–	–	–	–	–	–	–
[27], exposure time: 2 dpf	–	–	–	13	–	–	–	–	–	–	–	–	–	–	–
[27], exposure time: 4 dpf	–	–	–	34	–	–	–	–	–	–	–	–	–	–	–
